The record followed here is patent US7981920B2, “Addition salts of angiotensin-converting enzyme inhibitors with no donor acids, a process for their preparation and pharmaceutical compositions containing them” (Les Laboratoires Servier, priority 2007, dated 2011).

What is called IC50 is the concentration that inhibits the measured activity by half.

The subject of experiment [1] is Aorta rings without endothelium. The experiment can be described thus: NO donor activity in vitro: relaxation of noradrenaline-contracted aorta rings. The class given is cell-based. The settings on record: stable contraction induced by noradrenaline (0.1-0.3 μM), read-out: IC50 (dose that inhibits the maximum effect by 50%), relaxing effect. As to the method: Aorta rings without endothelium are used. After a first contraction induced by 60 mM KCl to characterise the sensitivity of the ring, and washing, a stable contraction is induced by noradrenaline (0.1-0.3 μM) in the presence or absence of a guanylate cyclase inhibitor, ODQ (10 μM). A cumulative concentration series is applied and the activity of the product under test is calculated by an IC50 (dose that inhibits the maximum effect by 50%).

The target of experiment [2] is T1, Angiotensin 1-Converting Enzyme (Rattus norvegicus, UniProt P47820).
T1 construct: from tissue; host or cells: whole living rat (in vivo; endogenous enzyme)
T1 sequence (P47820 36-1313): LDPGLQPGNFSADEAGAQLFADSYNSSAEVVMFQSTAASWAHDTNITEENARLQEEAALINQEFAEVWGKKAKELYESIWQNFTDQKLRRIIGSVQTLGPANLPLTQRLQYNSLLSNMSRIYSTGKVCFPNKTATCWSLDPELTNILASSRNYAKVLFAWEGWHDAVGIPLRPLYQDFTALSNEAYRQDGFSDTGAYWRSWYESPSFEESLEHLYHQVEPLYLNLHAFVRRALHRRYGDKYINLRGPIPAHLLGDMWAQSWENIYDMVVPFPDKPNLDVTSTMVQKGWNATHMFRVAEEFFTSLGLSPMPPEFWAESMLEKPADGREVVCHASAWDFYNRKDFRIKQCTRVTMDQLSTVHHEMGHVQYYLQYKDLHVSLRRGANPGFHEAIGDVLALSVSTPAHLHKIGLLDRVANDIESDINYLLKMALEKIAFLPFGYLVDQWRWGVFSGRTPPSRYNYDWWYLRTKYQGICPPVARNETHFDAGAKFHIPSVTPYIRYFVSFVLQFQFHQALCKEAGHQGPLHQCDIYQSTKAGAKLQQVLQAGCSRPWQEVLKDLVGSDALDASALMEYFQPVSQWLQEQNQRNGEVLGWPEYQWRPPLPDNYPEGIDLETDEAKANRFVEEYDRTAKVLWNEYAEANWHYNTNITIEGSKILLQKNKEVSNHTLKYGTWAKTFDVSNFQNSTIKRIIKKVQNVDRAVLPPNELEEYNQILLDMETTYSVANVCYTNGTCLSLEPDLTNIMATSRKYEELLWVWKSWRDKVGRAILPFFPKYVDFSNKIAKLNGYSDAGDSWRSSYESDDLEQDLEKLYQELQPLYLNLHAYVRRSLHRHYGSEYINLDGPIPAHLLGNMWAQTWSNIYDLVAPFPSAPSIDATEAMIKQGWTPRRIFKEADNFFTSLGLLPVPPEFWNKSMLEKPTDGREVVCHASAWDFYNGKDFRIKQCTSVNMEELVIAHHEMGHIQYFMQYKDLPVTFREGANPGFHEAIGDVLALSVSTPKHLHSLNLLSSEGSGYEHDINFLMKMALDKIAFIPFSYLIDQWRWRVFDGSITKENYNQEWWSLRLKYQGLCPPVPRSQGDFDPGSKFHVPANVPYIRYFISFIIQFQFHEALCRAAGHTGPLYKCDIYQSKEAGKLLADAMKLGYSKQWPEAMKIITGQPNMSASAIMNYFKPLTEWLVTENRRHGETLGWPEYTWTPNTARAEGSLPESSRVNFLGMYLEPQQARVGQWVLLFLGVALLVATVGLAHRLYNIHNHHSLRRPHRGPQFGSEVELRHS
The experiment can be described thus: Activity inhibiting angiotensin 1-converting enzyme in vivo: hypertensive response to angiotensin I in anaesthetised rats. To be noted: dose of 0.1 mg/kg, given 60 minutes prior to anaesthesia, angiotensin I i.v. 1.5 μg/kg. As to the method:
Rats are anaesthetised with pentobarbital and placed under artificial respiration, and the average arterial pressure is measured by a catheter that has been placed in the femoral artery and is connected to a pressure sensor. The vagus nerves are divided into sections and mecamilamine (sympathetic ganglion blocker) is injected i.v. at 1.5 mg/kg. After stabilisation, angiotensin I is injected i.v. at 1.5 μg/kg.
The maximum hypertensive response to angiotensin I is measured in rats that, 60 minutes prior to anaesthesia, have received by the oral route either Senegal gum alone (control group), or the compound under test in Senegal gum. The inhibitory effect is determined as a percentage from the response to angiotensin I compared with the control group.

“(2S)-2-[(3-{[5-Oxido-4-(phenylsulphonyl)-1,2,5-oxadiazol-3-yl]-oxy}-propionyl)-amino]-succinic Acid-(2S,3aS,7aS)-1-[(2S)-2-{[(1S)-1-(ethoxycarbonyl)-butyl]-amino}-propionyl]-octahydro-1H-indole-2-carboxylic Acid (1:1) [Example 1]”: the IC50 in experiment [1] came to 48 nM. Besides, in experiment [2], the “angiotensin I inhibition (inhibition of maximum hypertensive response to angiotensin I compared with control group)” value was 85%.

As for “(2S,3aS,7aS)-1-[(2S)-2-{[(1S)-1-(Ethoxycarbonyl)-butyl]-amino}-propionyl]-octahydro-1H-indole-2-carboxylic acid-{[(3-{[5-oxido-4-(phenylsulphonyl)-1,2,5-oxadiazol-3-yl]-oxy}-propionyl)-amino]-methyl}-phosphonic acid (1:1) [Example 7]”, the IC50 in experiment [1] came out at 47 nM. In addition, in experiment [2], the “angiotensin I inhibition (inhibition of maximum hypertensive response to angiotensin I compared with control group)” value came to 88%.
